# Experimental data: PubChem BioAssay AID1259407 (Chemical Carcinogenesis Research Information System (CCRIS), 2018)
# The source made the active and inactive calls. How the calls were made is not given here.
# Test system: CCRIS mutagenicity, Ames/micronucleus/aberration tests
# Experiment: CCRIS mutagenicity studies
compound,measurement,setting,value
Nc1ccc(-c2ccc(N)cc2)cc1,mutagenic call,"Test System: AMES SALMONELLA TYPHIMURIUM, Strain/Indicator: TA100, Metabolic Activation: RAT, BLADDER, S-9, PCB, Method: FLUCTUATION TEST",active; positive
same,mutagenic call,"Test System: AMES SALMONELLA TYPHIMURIUM, Strain/Indicator: TA100, Metabolic Activation: S-9, Method: STANDARD PLATE",inactive; negative
same,mutagenic call,"Test System: AMES SALMONELLA TYPHIMURIUM, Strain/Indicator: TA100, Metabolic Activation: TOBACCO CELL-FREE TXIMX, Method: PREINCUBATION",inactive; negative
same,mutagenic call,"Test System: AMES SALMONELLA TYPHIMURIUM, Strain/Indicator: TA1538, Metabolic Activation: GUINEA PIG, LIVER, INTACT HEPATOCYTES, Method: PREINCUBATION",active; positive
same,mutagenic call,"Test System: AMES SALMONELLA TYPHIMURIUM, Strain/Indicator: TA1538, Metabolic Activation: GUINEA PIG, LIVER, S-9, ACETYL COENZYME A, Method: PREINCUBATION",active; positive
same,mutagenic call,"Test System: AMES SALMONELLA TYPHIMURIUM, Strain/Indicator: TA1538, Metabolic Activation: GUINEA PIG, LIVER, S-9, Method: PREINCUBATION",active; positive
same,mutagenic call,"Test System: AMES SALMONELLA TYPHIMURIUM, Strain/Indicator: TA1538, Metabolic Activation: HAMSTER, LIVER, INTACT HEPATOCYTES, Method: PREINCUBATION",active; positive
same,mutagenic call,"Test System: AMES SALMONELLA TYPHIMURIUM, Strain/Indicator: TA1538, Metabolic Activation: HAMSTER, LIVER, S-9, ACETYL COENZYME A, Method: PREINCUBATION",active; positive
same,mutagenic call,"Test System: AMES SALMONELLA TYPHIMURIUM, Strain/Indicator: TA1538, Metabolic Activation: HAMSTER, LIVER, S-9, Method: PREINCUBATION",active; positive
same,mutagenic call,"Test System: AMES SALMONELLA TYPHIMURIUM, Strain/Indicator: TA1538, Metabolic Activation: HAMSTER, LIVER, S-9, Method: STANDARD PLATE",active; positive
same,mutagenic call,"Test System: AMES SALMONELLA TYPHIMURIUM, Strain/Indicator: TA1538, Metabolic Activation: RAT, LIVER, INTACT HEPATOCYTES, Method: PREINCUBATION",active; positive
same,mutagenic call,"Test System: AMES SALMONELLA TYPHIMURIUM, Strain/Indicator: TA1538, Metabolic Activation: RAT, LIVER, S-9, ACETYL COENZYME A, Method: PREINCUBATION",active; positive
same,mutagenic call,"Test System: AMES SALMONELLA TYPHIMURIUM, Strain/Indicator: TA1538, Metabolic Activation: RAT, LIVER, S-9, AROCLOR 1254, Method: STANDARD PLATE",active; positive
same,mutagenic call,"Test System: AMES SALMONELLA TYPHIMURIUM, Strain/Indicator: TA1538, Metabolic Activation: RAT, LIVER, S-9, PHENOBARBITAL, Method: STANDARD PLATE",active; positive
same,mutagenic call,"Test System: AMES SALMONELLA TYPHIMURIUM, Strain/Indicator: TA1538, Metabolic Activation: RAT, LIVER, S-9, Method: PREINCUBATION",active; positive
same,mutagenic call,"Test System: AMES SALMONELLA TYPHIMURIUM, Strain/Indicator: YG1021, Metabolic Activation: TOBACCO CELL-FREE TXIMX, Method: PREINCUBATION",active; positive
same,mutagenic call,"Test System: AMES SALMONELLA TYPHIMURIUM, Strain/Indicator: YG1021, Metabolic Activation: TOBACCO TX1 CELLS, Method: PREINCUBATION",active; positive
same,mutagenic call,"Test System: AMES SALMONELLA TYPHIMURIUM, Strain/Indicator: YG1024, Metabolic Activation: HUMAN, HEPATOMA CELLS, BENZO[A]ANTHRACENE, Method: PREINCUBATION",active; positive
same,mutagenic call,"Test System: AMES SALMONELLA TYPHIMURIUM, Strain/Indicator: YG1024, Metabolic Activation: HUMAN, HEPATOMA CELLS, Method: PREINCUBATION",active; positive
same,mutagenic call,"Test System: AMES SALMONELLA TYPHIMURIUM, Strain/Indicator: YG1024, Metabolic Activation: PLANT CELLS, Method: PREINCUBATION",active; positive
same,mutagenic call,"Test System: AMES SALMONELLA TYPHIMURIUM, Strain/Indicator: YG1024, Metabolic Activation: RAT, LIVER, S-9, AROCLOR 1254, Method: PREINCUBATION",active; positive
same,mutagenic call,"Test System: AMES SALMONELLA TYPHIMURIUM, Strain/Indicator: YG1024, Metabolic Activation: RAT, LIVER, S-9, Method: PREINCUBATION",active; positive
same,mutagenic call,"Test System: AMES SALMONELLA TYPHIMURIUM, Strain/Indicator: YG1024, Metabolic Activation: TOBACCO CELL-FREE EXTRACT, Method: PREINCUBATION",active; positive
same,mutagenic call,"Test System: AMES SALMONELLA TYPHIMURIUM, Strain/Indicator: YG1024, Metabolic Activation: TOBACCO CELL-FREE TXIMX, Method: PREINCUBATION",active; positive
same,mutagenic call,"Test System: AMES SALMONELLA TYPHIMURIUM, Strain/Indicator: YG1024, Metabolic Activation: TOBACCO TX1 CELLS, Method: PREINCUBATION",active; positive
same,mutagenic call,"Test System: AMES SALMONELLA TYPHIMURIUM, Strain/Indicator: YG1026, Metabolic Activation: TOBACCO CELL-FREE TXIMX, Method: PREINCUBATION",inactive; negative
same,mutagenic call,"Test System: AMES SALMONELLA TYPHIMURIUM, Strain/Indicator: YG1026, Metabolic Activation: TOBACCO TX1 CELLS, Method: PREINCUBATION",inactive; negative
same,mutagenic call,"Test System: AMES SALMONELLA TYPHIMURIUM, Strain/Indicator: YG1029, Metabolic Activation: TOBACCO CELL-FREE TXIMX, Method: PREINCUBATION",active; positive
same,mutagenic call,"Test System: AMES SALMONELLA TYPHIMURIUM, Strain/Indicator: YG1029, Metabolic Activation: TOBACCO TX1 CELLS, Method: PREINCUBATION",active; positive
same,mutagenic call,"Test System: Ames Salmonella typhimurium, Strain/Indicator: TA98, Metabolic Activation: Rat, Liver, S-9, Sodium phenobarbitone, Method: Preincubation","active; positive, test conducted under both aerobic and anaerobic conditions."
same,mutagenic call,"Test System: Ames Salmonella typhimurium, Strain/Indicator: TA102, Metabolic Activation: None, Method: Preincubation",inactive; negative
same,mutagenic call,"Test System: Ames Salmonella typhimurium, Strain/Indicator: TA102, Metabolic Activation: Rat, Liver, S-9, Aroclor 1254 in 0.154 M KCl, Method: Preincubation","active; positive (coumestrol, ellagic acid, (-) epicatechin, (-) epichatechingallate, ga"
same,mutagenic call,"Test System: Ames Salmonella typhimurium, Strain/Indicator: TA102, Metabolic Activation: Rat, liver, S-9, Aroclor 1254, 4%, Method: Preincubation",active; positive
same,mutagenic call,"Test System: Ames Salmonella typhimurium, Strain/Indicator: TA1538, Metabolic Activation: Rat, Liver, S-9, Sodium phenobarbitone, Method: Preincubation","active; positive, test conducted under both aerobic and anaerobic conditions."
same,mutagenic call,"Test System: CHINESE HAMSTER OVARY, Strain/Indicator: CHO-K1-BH4 (HGPRT)/6-THIOGUANINE, Metabolic Activation: RAT, LIVER, S-9, Method: SUSPENSION/PLATE",inactive; negative
same,mutagenic call,"Test System: CHINESE HAMSTER OVARY, Strain/Indicator: CHO-K1-BH4 (HGPRT), Metabolic Activation: RAT, LIVER, S-9, AROCLOR, Method: SUSPENSION/PLATE",active; positive
same,mutagenic call,"Test System: CHINESE HAMSTER V-79, Strain/Indicator: V-79/6-THIOGUANINE, Metabolic Activation: MOUSE, LIVER, S-9, Method: SUSPENSION/PLATE",active; positive
same,mutagenic call,"Test System: CHINESE HAMSTER V-79, Strain/Indicator: V-79/6-THIOGUANINE, Metabolic Activation: NONE, Method: SUSPENSION/PLATE",inactive; negative
same,mutagenic call,"Test System: CHINESE HAMSTER V-79, Strain/Indicator: V-79/6-THIOGUANINE, Metabolic Activation: RAT, LIVER, S-9, AROCLOR 1254, Method: SUSPENSION/PLATE",inactive; negative
same,mutagenic call,"Test System: CHINESE HAMSTER V-79, Strain/Indicator: V-79/6-THIOGUANINE, Metabolic Activation: RAT, LIVER, S-9, PHENOBARBITAL AND BETA-NAPHTHOFLAVONE, Method: SUSPENSION/PLATE",inactive; negative
same,mutagenic call,"Test System: MOUSE LYMPHOMA, Strain/Indicator: L5178Y (HGPRT)/6-THIOGUANINE, Metabolic Activation: NONE, Method: SUSPENSION/PLATE",inactive; negative
same,mutagenic call,"Test System: MOUSE LYMPHOMA, Strain/Indicator: L5178Y (HGPRT)/6-THIOGUANINE, Metabolic Activation: RAT, LIVER, S-9, AROCLOR 1254, Method: SUSPENSION/PLATE",inactive; negative
same,mutagenic call,"Test System: MOUSE LYMPHOMA, Strain/Indicator: L5178Y (HPRT), Metabolic Activation: NONE, Method: SUSPENSION/PLATE",inactive; negative
same,mutagenic call,"Test System: MOUSE LYMPHOMA, Strain/Indicator: L5178Y (TK+/TK-)/TRIFLUOROTHYMIDINE, Metabolic Activation: NONE, Method: SUSPENSION/PLATE",active; positive
same,mutagenic call,"Test System: MOUSE LYMPHOMA, Strain/Indicator: L5178Y (TK+/TK-)/TRIFLUOROTHYMIDINE, Metabolic Activation: RAT, LIVER, S-9, AROCLOR 1254, Method: SUSPENSION/PLATE",active; positive
same,mutagenic call,"Test System: MOUSE LYMPHOMA, Strain/Indicator: L5178Y (TK+/TK-), Metabolic Activation: NONE, Method: SUSPENSION/PLATE",active; positive
same,mutagenic call,"Test System: MOUSE LYMPHOMA, Strain/Indicator: L5178Y (TK+/TK-), Metabolic Activation: RAT, LIVER, S-9, AROCLOR 1254, Method: SUSPENSION/PLATE",active; positive
same,mutagenic call,"Test System: MOUSE LYMPHOMA, Strain/Indicator: L5178Y (TK+/TK-), Metabolic Activation: S-9, Method: SUSPENSION/PLATE",active; positive
same,mutagenic call,"Test System: UDS RODENT HEPATOCYTES, Strain/Indicator: THY INCORP (NON-S-PHASE), Method: AUTORADIOGRAPHY",active; positive
